Test results: patent US4920118A, “Aromatic 2-aminoalkyl-1,2-benzoisothiazol-3-(2H)one-1,1-dioxide and their use as anxiolytic and anti-hypertensive agents” (Merrell Dow Pharmaceuticals Inc., priority 1989, dated 1990)
Where two headings read alike, the source gives them in different places.

Legend:
[1] = tested on: conscious spontaneously hypertensive rats; assay: Arterial blood pressure and heart rate in conscious spontaneously hypertensive rats; assay type: in vivo, rat; conditions: for Δ BP / Δ HR: conscious SHR
Procedure: In a separate experiment arterial blood pressure and heart rate were measured directly in conscious male, spontaneously hypertensive rats weighing 250-350 g (Charles River, France). The same test compound was administered, either s.c. or orally, as a saline solution of 1 ml/kg body weight in the doses shown below.

[2] = tested on: anesthetized normotensive Sprague-Dawley rats; assay: Blood pressure and heart rate in anesthetized normotensive rats; assay type: in vivo, rat
Procedure: Male, normotensive Sprague-Dawley rats weighing 250-350 g (supplied by Charles River, France) were anesthetized with pentobarbitone sodium, 60 mg/kg, i.p., plus 15 mg/kg s.c. Blood pressure was recorded either from the left common carotid artery or from a femoral artery by means of a Statham pressure transducer (Type P23 AA) and heart rate was recorded from the electrocardiogram using a Beckman cardiotachometer coupler (Type 9757 B). […] A femoral vein was cannulated for the intravenous injection of drugs. After completion of all operative procedures, heparin 500 U was injected intravenously.
The compounds of Example I, 2-[4-[(2,3-dihydro-1,4-benzodioxine-2-yl)methylamino]butyl]-1,2-benzoisothiazol-3(2H)one-1,1-dioxide was administered s.c. as a saline solution in a volume of 1 ml/kg body weight. The following changes in blood pressure (B.P.) and heart rate (H.R.) were observed.

5-HT1A recognition sites = biological target: T1, 5-HT1A recognition sites (Rattus norvegicus, UniProt P19327); assay: 5-HT1A radioligand binding, rat frontal cortex homogenate; conditions: for Fold Increase (antilog of the difference of the test compound compared to buspirone): 5-HT1A binding potency relative to buspirone
T1 construct: male normotensive Sprague-Dawley rat frontal cortex was dissected, frozen in liquid nitrogen; from tissue; host or cells: frontal cortex of male normotensive Sprague-Dawley rats, washed homogenate
T1 sequence (P19327 1-422): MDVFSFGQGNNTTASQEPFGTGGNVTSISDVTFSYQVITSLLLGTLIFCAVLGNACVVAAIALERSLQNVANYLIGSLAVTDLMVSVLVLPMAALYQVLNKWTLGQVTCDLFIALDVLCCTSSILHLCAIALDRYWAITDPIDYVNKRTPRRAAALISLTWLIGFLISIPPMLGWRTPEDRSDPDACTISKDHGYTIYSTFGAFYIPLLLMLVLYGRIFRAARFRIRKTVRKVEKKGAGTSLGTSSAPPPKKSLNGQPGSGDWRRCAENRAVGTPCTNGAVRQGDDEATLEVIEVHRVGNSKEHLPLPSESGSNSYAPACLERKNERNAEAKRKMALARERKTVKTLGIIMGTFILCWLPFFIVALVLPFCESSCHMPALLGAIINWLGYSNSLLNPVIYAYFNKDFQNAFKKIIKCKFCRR
Procedure: Radioligand binding studies of the 5-HT1A recognition sites were carried out as follows: male normotensive Sprague-Dawley rat frontal cortex was dissected, frozen in liquid nitrogen and stored at -20° C. until needed. Tissues from 4-8 rats were pooled and homogenised in 70 vol Tris-HCl buffer (50 mM, pH 7.7), using a kinematica Polytron (setting 2/3 max speed, 20 sec). The homogenate was centrifuged (36500×g for 10 min), the pellet re-homogenised in the same volume of buffer and the process repeated two more times. Between the second and third centrifugations the tissue homogenate was incubated at 37° C. for 10 min. The final pellet was suspended in the same volume of Tris buffer containing 10M pargyline, 5.7 mM CaCl2 and 0.1% ascorbic acid. This suspension was incubated for 10 min at 37° C. and then stored on ice until used in the binding assay.
Tissue homogenate (0.7 ml), radioactive ligand (0.1 ml) and the appropriate concentration of test compound (0.1 ml), together with buffer to a final volume of 1 ml were incubated at 37° C. for 15 min. Incubations were terminated by rapid filtration through Whatman GF/B filters followed by three 5 ml washes with ice-cold Tris-HCl buffer (50 mM, pH 7.0). Radioactivity was measured after extraction into Aquasol-Z (NEN) at an efficiency of 45-50%. The radioligand used to label the 5-HT1A recognition sites and its concentration is [^3 H]-8-hydroxy-2-(di-n-propylamino)-tetralin, ([^3 H]-8-OH-DPAT), 1 mM.

[3] = [3H]-8-OH-DPAT, rat frontal cortex, mean ± S.E.M. of 3 independent experiments, read-out: 5-HT1A Binding Affinity Rat Brain Cortex (pIC50) (converted)

For `O=C1c2ccccc2S(=O)(=O)N1CCCCNCC1COc2ccccc2O1` (stereo not drawn) [Example I, 2-[4-[(2,3-Dihydro-1,4-benzodioxin-2-yl)methylamino]butyl]-1,2-benzoisothiazol-3(2H)one-1,1-dioxide], the “Δ BP” value ([1]; 100 μg/kg s.c.) was -20 mmHg, the “Δ HR” value ([1]; 100 μg/kg s.c.) was “+80 beats/min” and the “Δ BP” value ([1]; 200 μg/kg s.c.) was -65 mmHg. For the same molecule, the “Δ HR” value ([1]; 200 μg/kg s.c.) was “+100 beats/min”, the “Δ BP” value ([1]; 500 μg/kg s.c.) was -75 mmHg and the “Δ HR” value ([1]; 500 μg/kg s.c.) was “+120 beats/min”. For the same molecule, the “Δ BP” value ([1]; 1 mg/kg per os) was -25 mmHg, the “Δ HR” value ([1]; 1 mg/kg per os) was “+100 beats/min” and the “Δ BP” value ([1]; 5 mg/kg per os) was -45 mmHg. For the same molecule, the “Δ HR” value ([1]; 5 mg/kg per os) was “+100 beats/min”, the “Effect on blood pressure and heart rate (in words)” value ([1]; conscious spontaneously hypertensive rats) was “lowers the blood pressure with reflex tachycardia” and the “Effect on blood pressure and heart rate (in words)” value [2] was “effectively lowers the blood pressure and heart rate”. The “Δ BP” value ([2]; 25 μg/kg s.c.) was -35 mmHg, the “Δ HR” value ([2]; 25 μg/kg s.c.) was -80 beats/min and the “Δ BP” value ([2]; 500 μg/kg s.c.) was -50 mmHg. The “Δ HR” value ([2]; 500 μg/kg s.c.) was -90 beats/min, the “Fold Increase (antilog of the difference of the test compound compared to buspirone)” value (5-HT1A recognition sites) was 66 and the IC50 (5-HT1A recognition sites; [3]) was 0.457 nM.
In the case of `O=C1c2ccccc2S(=O)(=O)N1CCCCN1CCc2c([nH]c3ccccc23)C1` [Example II, 2-[4-(2-[1,2,3,4]-tetrahydro-β-carbolinyl)butyl]-1,2-benzoisothiazol-3(2H)one-1,1-dioxide], the IC50 (5-HT1A recognition sites) is reported as 6.92 nM and the “Fold Increase (antilog of the difference of the test compound compared to buspirone)” value (5-HT1A recognition sites) is reported as 4.4.
`COc1cccc2c1CC(NCCCCN1C(=O)c3ccccc3S1(=O)=O)CC2` (stereo not drawn) [Example III, 2-[4-[8-Methoxytetralin-2-amino]butyl]1,2-benzoisothiazol3(2H)one-1,1-dioxide] was tested, and the “Fold Increase (antilog of the difference of the test compound compared to buspirone)” value (5-HT1A recognition sites) was 10 and the IC50 (5-HT1A recognition sites; [3]) was 3.02 nM.
`O=C1c2ccccc2S(=O)(=O)N1CCCCNCC1COc2ccccc2N1` (stereo not drawn) [Example V, 2-[4-[(2,3-Dihydro-1,4-benzoxazin-3-yl)methylamino]butyl]-1,2-benzoisothiazol-3-(2H)one-1,1-dioxide] was tested, and the “Fold Increase (antilog of the difference of the test compound compared to buspirone)” value (5-HT1A recognition sites) was 3.2 and the IC50 (5-HT1A recognition sites; [3]) was 9.33 nM.
